The record followed here is patent US10807952B2 (Achillion Pharmaceuticals, Inc., priority 2015, dated 2020).

Structures can show the parent of a compound that is named as a salt.

Chain of Human Factor D (P00746 26-253): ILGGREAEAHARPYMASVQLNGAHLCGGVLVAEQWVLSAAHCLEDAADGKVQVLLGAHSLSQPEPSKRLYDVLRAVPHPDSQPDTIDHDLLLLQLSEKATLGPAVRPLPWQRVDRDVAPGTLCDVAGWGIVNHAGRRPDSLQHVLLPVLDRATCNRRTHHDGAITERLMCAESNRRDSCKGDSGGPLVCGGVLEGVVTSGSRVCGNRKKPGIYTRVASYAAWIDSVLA

The first assay deals with Human Factor D (Homo sapiens (Human), UniProt P00746). Briefly: Human Factor D assay (Z-L-Lys-SBzl / DTNB, absorbance at 405 nm). It counts as biochemical. The conditions noted are these: Table 3; Human Factor D 80 nM, assay of Example 13. On the procedure:
Human Factor D (purified from human serum, Complement Technology, Inc.) at 80 nM final concentration was incubated with test compound at various concentrations for 5 minutes at room temperature in 50 mM Tris, 1M NaCl, pH 7.5. A synthetic substrate Z-L-Lys-SBzl and DTNB (Ellman's reagent) were added to final concentrations of 100 μM each. […] IC50 values were calculated by nonlinear regression of complement Factor D reaction rates as a function of test compound concentration.
The term IC50 denotes the concentration that inhibits the measured activity by half. A lower IC50 goes with higher potency. On to `O=C(Nc1cccc(-c2ccccc2Cl)c1F)[C@@H]1C[C@@H](F)CN1C(=O)Cc1cccc(Cl)c1` [Compound 42], for which the IC50 is below 1000 nM.

Compound `NC(=O)c1nn(CC(=O)N2C[C@H](F)C[C@H]2C(=O)Nc2cccc(-c3ccc4scnc4c3)c2F)c2ccccc12` [Compound 52, 1-(2-((2S,4R)-2-(3-(benzo[d]thiazol-5-yl)-2-fluorophenyl-carbamoyl)-4-fluoropyrrolidin-1-yl)-2-oxoethyl)-1H-indazole-3-carboxamide] displayed an IC50 below 1000 nM.

As for `NC(=O)c1nn(CC(=O)N2C[C@H](F)C[C@H]2C(=O)Nc2cccc(Br)n2)c2cc(S(F)(F)(F)(F)F)ccc12` [Compound 40, 1-(2-((2S,4R)-2-((6-Bromopyridin-2-yl)carbamoyl)-4-fluoropyrrolidin-1-yl)-2-oxoethyl)-6-(pentafluoro-λ^6-sulfanyl)-1H-indazole-3-carboxamide], the IC50 was below 1000 nM.

Regarding `NC(=O)c1nn(CC(=O)N2C[C@H](F)C[C@H]2C(=O)Nc2cccc(-c3ccc4[nH]c(=O)[nH]c4c3Cl)c2F)c2ccccc12` [Compound 11, 1-(2-((2S,4R)-2-((3-(4-Chloro-2-oxo-2,3-dihydro-1H-benzo[d]imidazol-5-yl)-2-fluorophenyl)carbamoyl)-4-fluoropyrrolidin-1-yl)-2-oxoethyl)-1H-indazole-3-carboxamide], the 50% inhibitory concentration (IC50) was below 1000 nM.

The compound `NC(=O)c1nn(CC(=O)N2C[C@H](F)C[C@H]2C(=O)Nc2cccc(-c3ccc4[nH]c(C(F)(F)F)nc4c3Cl)c2F)c2ccccc12` [Compound 9, 1-(2-((2S,4R)-2-(3-(4-chloro-2-(trifluoromethyl)-1H-benzo[d]imidazol-5-yl)-2-fluorophenyl-carbamoyl)-4-fluoropyrrolidin-1-yl)-2-oxoethyl)-1H-indazole-3-carboxamide] displayed an IC50 below 1000 nM.

With `CC(=O)n1cc(CC(=O)N2C[C@H](F)C[C@H]2C(=O)Nc2cccc(-c3ccccc3Cl)c2F)c2ccc(-c3cnc(C)nc3)cc21` [Compound 60, (2S,4R)-1-(2-(1-acetyl-6-(2-methylpyrimidin-5-yl)-1H-indol-3-yl)acetyl)-N-(2′-chloro-2-fluorobiphenyl-3-yl)-4-fluoropyrrolidine-2-carboxamide], the IC50 was below 1000 nM.

`CC(=O)c1cn(CC(=O)N[C@H](C(=O)Nc2cccc(Br)n2)[C@@H](C)O)c2ccccc12` [Compound 16, (2S,3R)-2-(2-(3-acetyl-1H-indol-1-yl)acetamido)-N-(6-bromopyridin-2-yl)-3-hydroxybutanamide] registered an IC50 of 1000 to 10000 nM.

As to `Cc1cc2c(s1)c(C(N)=O)nn2CC(=O)N1C[C@H](F)C[C@H]1C(=O)Nc1cccc(-c2cc(C(N)=O)ccc2Cl)c1F` [Compound 49, 1-(2-((2S,4R)-2-(5′-carbamoyl-2′-chloro-2-fluorobiphenyl-3-ylcarbamoyl)-4-fluoropyrrolidin-1-yl)-2-oxoethyl)-5-methyl-1H-thieno[3,2-c]pyrazole-3-carboxamide], the concentration for half-maximal inhibition (IC50) is below 1000 nM.

Consider `Cc1nc2cc(-c3cccc(NC(=O)[C@@H]4C[C@@H](F)CN4C(=O)Cn4nc(C(N)=O)c5ccccc54)c3F)ccc2[nH]1` [Compound 10], for which the IC50 is below 1000 nM.

Regarding `Cc1nc2c(Cl)c(-c3cccc(NC(=O)[C@@H]4C[C@@H](F)CN4C(=O)Cn4nc(C(N)=O)c5ccccc54)c3F)ccc2[nH]1` [Compound 12, 1-(2-((2S,4R)-2-(3-(4-chloro-2-methyl-1H-benzo[d]imidazol-5-yl)-2-fluorophenyl-carbamoyl)-4-fluoropyrrolidin-1-yl)-2-oxoethyl)-1H-indazole-3-carboxamide], the IC50 was below 1000 nM.

`NC(=O)c1nn(CC(=O)N2C[C@H](F)C[C@H]2C(=O)Nc2cccc(-c3ccc4cn[nH]c4c3)c2F)c2ccccc12` [Compound 28, 1-(2-((2S,4R)-4-fluoro-2-(2-fluoro-3-(1H-indazol-6-yl)phenylcarbamoyl)pyrrolidin-1-yl)-2-oxoethyl)-1H-indazole-3-carboxamide] returned an IC50 below 1000 nM.

With `CC(C)(C)OC(=O)N=S(C)(=O)c1cccc(-c2cccc(NC(=O)[C@@H]3C[C@@H](F)CN3C(=O)Cn3nc(C(N)=O)c4ccccc43)c2F)c1` (stereo partly drawn) [Compound 64, tert-butyl ((3′-((2S,4R)-1-(2-(3-carbamoyl-1H-indazol-1-yl)acetyl)-4-fluoropyrrolidine-2-carboxamido)-2′-fluoro-[1,1′-biphenyl]-3-yl)(methyl)(oxo)-[…]^6-sulfanylidene)-[…]^4-azanecarboxylate], the IC50 lay within 1000 to 10000 nM.

With `CS(=N)(=O)c1cccc(-c2cccc(NC(=O)[C@@H]3C[C@@H](F)CN3C(=O)Cn3nc(C(N)=O)c4ccccc43)c2F)c1` (stereo partly drawn) [Compound 65, 1-(2-((2S,4R)-4-fluoro-2-(2-fluoro-3′-(S-methylsulfonimidoyl)biphenyl-3-ylcarbamoyl)pyrrolidin-1-yl)-2-oxoethyl)-1H-indazole-3-carboxamide], the concentration for half-maximal inhibition (IC50) lay within 1000 to 10000 nM.

As to `NC(=O)c1cc(CC(=O)N2C[C@H](F)C[C@H]2C(=O)Nc2cccc(-c3ccccc3Cl)c2F)ccc1Cl` [Compound 22, (2S,4R)-1-(2-(3-carbamoyl-4-chlorophenyl)acetyl)-N-(2′-chloro-2-fluorobiphenyl-3-yl)-4-fluoropyrrolidine-2-carboxamide], the IC50 was 1000 to 10000 nM.

Consider `CC(=O)c1cn(CC(=O)O)c2cc(-c3cccc(NC(=O)[C@@H]4C[C@@H](F)CN4C(=O)Cn4nc(C(N)=O)c5ccccc54)c3F)ccc12` [Compound 31, 2-(3-acetyl-6-(3-((2S,4R)-1-(2-(3-carbamoyl-1H-indazol-1-yl)acetyl)-4-fluoropyrrolidine-2-carboxamido)-2-fluorophenyl)-1H-indol-1-yl)acetic acid], for which the IC50 is 1000 to 10000 nM.

Regarding `NC(=O)c1cn(CC(=O)N2C[C@H](F)C[C@H]2C(=O)Nc2cccc(-c3ccccc3Cl)c2F)n2ccnc12` [Compound 58, 5-(2-((2S,4R)-2-(2′-chloro-2-fluorobiphenyl-3-ylcarbamoyl)-4-fluoropyrrolidin-1-yl)-2-oxoethyl)-5H-imidazo[1,2-b]pyrazole-7-carboxamide], the IC50 is 1000 to 10000 nM.

Regarding `NC(=O)c1nn(CC(=O)N2C[C@H](F)C[C@H]2C(=O)Nc2cccc(-c3n[nH]c4ccsc34)c2F)c2ccccc12` [Compound 71, 1-(2-((2S,4R)-4-Fluoro-2-((2-fluoro-3-(1H-thieno[3,2-c]pyrazol-3-yl)phenyl)carbamoyl)pyrrolidin-1-yl)-2-oxoethyl)-1H-indazole-3-carboxamide], the IC50 is below 1000 nM.

In turn, `CC(=O)c1cn(CC(=O)N[C@H](C(=O)Nc2cccc(-c3ccccc3Cl)c2F)[C@@H](C)O)c2ccccc12` [Compound 7, (2S,3R)-2-(2-(3-Acetyl-1H-indol-1-yl)acetamido)-N-(2′-chloro-2-fluorobiphenyl-3-yl)-3-hydroxybutanamide] had an IC50 below 1000 nM.

For the compound `N#Cc1cc(CC(=O)N2C[C@H](F)C[C@H]2C(=O)Nc2cccc(-c3ccccc3Cl)c2F)ccc1Cl` [Compound 23, (2S,4R)-N-(2′-chloro-2-fluorobiphenyl-3-yl)-1-(2-(4-chloro-3-cyanophenyl)acetyl)-4-fluoropyrrolidine-2-carboxamide], the IC50 was 1000 to 10000 nM.

Still in this assay, the particulars now being: Table 4; Human Factor D 80 nM, assay of Example 13.
`NC(=O)c1nn(CC(=O)N2C[C@H](F)C[C@H]2C(=O)Nc2cccc(-c3cc(C(=O)O)c4nc(N)[nH]c4c3)c2F)c2ccccc12` [Compound 77, 2-Amino-6-(3-((2S,4R)-1-(2-(3-carbamoyl-1H-indazol-1-yl)acetyl)-4-fluoropyrrolidine-2-carboxamido)-2-fluorophenyl)-1H-benzo[d]imidazole-4-carboxylic acid hydrochloride] displayed an IC50 of 1000 to 10000 nM.

The compound `CC(=O)c1nn(CC(=O)N2C[C@H](F)C[C@H]2C(=O)Nc2cccc(-c3ccc4c(c3)NC(=O)NC4)c2F)c2ccccc12` [Compound 96, (2S,4R)-1-(2-(3-acetyl-1H-indazol-1-yl)acetyl)-4-fluoro-N-(2-fluoro-3-(2-oxo-1,2,3,4-tetrahydroquinazolin-7-yl)phenyl)pyrrolidine-2-carboxamide] registered an IC50 below 1000 nM.

The compound `CC(=O)c1nn(CC(=O)N2C[C@H](F)C[C@H]2C(=O)Nc2cccc(-c3ccc4nc(N)sc4c3)c2F)c2ccccc12` [Compound 101, (2S,4R)-1-(2-(3-acetyl-1H-indazol-1-yl)acetyl)-N-(3-(2-aminobenzo[d]thiazol-6-yl)-2-fluorophenyl)-4-fluoropyrrolidine-2-carboxamide] gave an IC50 below 1000 nM.

`CC(=O)c1nn(CC(=O)N2C[C@H](F)C[C@H]2C(=O)Nc2cccc(-c3ccc4[nH]ccc4c3)c2F)c2ccccc12` [Compound 85, (2S,4R)-1-(2-(3-acetyl-1H-indazol-1-yl)acetyl)-4-fluoro-N-(2-fluoro-3-(1H-indol-5-yl)phenyl)pyrrolidine-2-carboxamide] showed an IC50 below 1000 nM.

With `COC(=O)Nc1nc2ccc(-c3cccc(NC(=O)[C@@H]4C[C@@H](F)CN4C(=O)Cn4nc(C(C)=O)c5ccccc54)c3F)c(Cl)c2[nH]1` [Compound 81, methyl (6-(3-((2S,4R)-1-(2-(3-acetyl-1H-indazol-1-yl)acetyl)-4-fluoropyrrolidine-2-carboxamido)-2-fluorophenyl)-7-chloro-1H-benzo[d]imidazol-2-yl)carbamate], the half-inhibitory concentration (IC50) was below 1000 nM.

With `N#CNC(=O)c1ccc(Cl)c(-c2cccc(NC(=O)[C@@H]3C[C@@H](F)CN3C(=O)Cn3nc(C(N)=O)c4ccccc43)c2F)c1` [Compound 89, 1-(2-((2S,4R)-2-((2′-chloro-5′-(cyanocarbamoyl)-2-fluoro-[1,1′-biphenyl]-3-yl)carbamoyl)-4-fluoropyrrolidin-1-yl)-2-oxoethyl)-1H-indazole-3-carboxamide], the IC50 is below 1000 nM.

`CC(=O)c1nn(CC(=O)N2C[C@H](F)C[C@H]2C(=O)Nc2cccc(-c3ccc4c(c3)CCC(=O)N4)c2F)c2ccccc12` [Compound 82, (2S,4R)-1-(2-(3-acetyl-1H-indazol-1-yl)acetyl)-4-fluoro-N-(2-fluoro-3-(2-oxo-1,2,3,4-tetrahydroquinolin-6-yl)phenyl)pyrrolidine-2-carboxamide] gave an IC50 below 1000 nM.
